Data taken from patent publication US20090209527A1, “Methods for Using Rapamycin Analogues in the Treatment of Neurological Disorders” (Wyeth, priority 2008, published 2009).
Where two headings read alike, the source gives them in different places.

Columns and labels:
cortical neuron cultures = experiment: Cortical neuron assay (neurite outgrowth in dissociated cortical neuron cultures); type: cell-based, rat; details: Rattus norvegicus, Cortical neurone; 72 hours treatment, neurite outgrowth; read-out: EC50 in cortical neuron assays
Protocol: Dissociated cortical neuron cultures were prepared as previously described (Liu et al., Screening of Immunophilin Ligands by Quantitative Analysis of Neurofilament Expression and Neurite Outgrowth in Cultured Neurons and Cells, J. Neurosci. Methods, 2007 Jul. 30; 163(2):310-20).
Briefly, embryonic day 15 rat fetuses were collected and dissected in ice-cold PBS. Dissected cortices were pooled together and transferred to an enzymatic dissociation medium containing papain. After 30 minutes, the tissue was mechanically triturated with a fire-polished glass Pasteur pipette. Single-cell suspensions in complete media were seeded on poly-L-ornithine and laminin coated 96-well plates. After 24 hours, cultures were treated with various concentrations of compound for 72 hours. The cultures were then fixed and stained with an anti-tubulin primary antibody (TUJ-1) and a fluorescent-tagged secondary antibody. Neurite outgrowth was determined by using the Enhanced Neurite Outgrowth (ENO) algorithm with the Cellomics ArrayScan and expressed as average neurite length or total neurite length per cell.

[1] = system: Mesencephalic dopaminergic neuron cultures; experiment: Dopaminergic uptake assay (3H-dopamine uptake after MPP+ exposure); type: cell-based, rat; details: read-out: EC50 in dopaminergic uptake assays
Protocol: Mesencephalic dopaminergic neuron cultures were prepared as described in Pong et al., J. Neurochem. 69: 986-994, 1997, which is incorporated herein by reference in its entirety. Embryonic day 15 (E15) rat fetuses were collected and dissected in ice-cold phosphate-buffered saline (PBS). The ventral piece of tissue compromising the mesencephalic dopaminergic region was dissected out. Dissected pieces of tissue were pooled together and transferred to an enzymatic dissociation medium containing 20 IU/mL papain in Earle's balanced salt solution (Worthington Biochemical, Freehold, N.J., USA) and incubated for 60 minutes at 37° C. After enzymatic dissociation, the papain solution was aspirated and the tissue mechanically triturated with a fire-polished glass Pasteur pipette in complete medium (equal volumes of minimum essential medium (MEM) and F-12 nutrient mixture (GibcoBRL) supplemented with 0.1 mg/mL apotransferrin and 2.5 μg/mL insulin) containing 2,000 IU/mL DNase and 10 mg/mL ovomucoid protease inhibitor.
For dopamine uptake experiments, single-cell suspensions in complete media were seeded on poly-L-ornithine and laminin coated 24-well plates. The cultures were maintained for seven days prior to experimentation. […]
After 48 hours growth of mesencephalic dopaminergic neuron cultures following MPP+ exposure, high-affinity 3H-dopamine uptake was performed using a modified method described by Prochiantz et al., Nature 293: 570-572, 1981, which is incorporated herein by reference. Cultures were washed with pre-warmed PBS containing 5.6 mM glucose and 1 mM ascorbic acid. Cultures were then incubated for 15 minutes at 37° C. with 50 nM 3H-dopamine (31 Ci/mmol, DuPont-NEN, Wilmington, Del., USA). The cultures were washed twice with buffer and lysed with 0.5N NaOH. The lysate was transferred to a scintillation vial containing Ultima Gold scintillation cocktail and radioactivity was determined with a liquid scintillation counter. Alternatively, culture lysates can be washed twice with buffer, incubated for 2 hours at room temperature with Optiphase Supermix scintillation cocktail (Wallac Scintillation Products, Gaithersburg, Md., USA), and radioactivity measured with a liquid scintillation counter.

[2] = system: Spinal cord neuron cultures; experiment: Spinal cord neuron assay; type: cell-based; details: Rattus norvegicus, 72 hours treatment, read-out: EC50 in spinal cord neuron assays
Protocol: Spinal cord neuron cultures were prepared from embryonic day 15 (E15) rat embryos (Liu et al., Screening of Immunophilin Ligands by Quantitative Analysis of Neurofilament Expression and Neurite Outgrowth in Cultured Neurons and Cells, J. Neurosci. Methods, 2007 Jul. 30; 163(2):310-20). The embryos were collected and their spinal cords were removed in ice-cold phosphate-buffered saline (PBS) without Ca^2+ and Mg^2+. Dissected pieces of spinal cord tissue were pooled together and transferred to an enzymatic dissociation media containing 20 IU/mL papain in Earle's balanced salt solution (Worthington Biochemical, Freehold, N.J.) and incubated for 30 minutes at 37° C. After enzymatic dissociation, the papain solution was aspirated and the tissue mechanically triturated with a fire-polished Pasteur pipette in complete media [Neurobasal Medium with B-27 supplement (Gibco, Grand Island, N.Y.), 100 IU/mL penicillin, 100 µg/mL streptomycin, […] aphidicolin, 0.5 mM glutamate] containing 2,000 IU/mL DNase and 10 mg/mL ovomucoid protease inhibitor. Single-cell suspensions in complete media were plated on pre-coated poly-L-ornithine/laminin 96-well plates (Becton-Dickinson, Bedford, Mass.) at a density of 1.0×10^4 cells/well. Spinal cord neurons were maintained for 24 hours then exposed to vehicle or various concentrations of compound for 72 hours.

Compound	EC50 ([1]; Rattus norvegicus, Neuron) [µM]	EC50 [2] [µM]	EC50 [1] [µM]	EC50 (cortical neuron cultures) [µM]
CO[C@H]1C[C@@H]2CC[C@@H](C)[C@@](O)(O2)C(=O)C(=O)N2CCCC[C@H]2C(=O)O[C@H]([C@H](C)C[C@@H]2CC[C@@H](O)[C@H](OC)C2)CC(=O)[C@H](C)/C=C(\C)[C@@H](O)[C@@H](OC)C(=O)[C@H](C)C[C@H](C)/C=C/C=C/C=C/1C [rapamycin]	> 1	–	–	> 1
CO[C@H]1C[C@@H]2CC[C@@H](C)[C@@](O)(O2)C(=O)C(=O)N2CCCC[C@H]2C(=O)O[C@H]([C@H](C)C[C@@H]2CC[C@@H](O)[C@H](OC)C2)CC(=O)[C@H](C)/C=C(\C)[C@@H](O)[C@@H](OC)C(=O)[C@H](C)C[C@H](C)C2C=CC(/C=C/1C)ON2c1c(Cl)cccc1Cl [Example 3]	–	< 1	–	< 1
Rapamycin phenyltriazolinedione	–	–	< 1	–

Now from value to compound, other results behind:

EC50 ([1]; Rattus norvegicus, Neuron) [µM]	EC50 [2] [µM]	EC50 [1] [µM]	Compound	EC50 (cortical neuron cultures) [µM]
> 1	–	–	CO[C@H]1C[C@@H]2CC[C@@H](C)[C@@](O)(O2)C(=O)C(=O)N2CCCC[C@H]2C(=O)O[C@H]([C@H](C)C[C@@H]2CC[C@@H](OC(=O)C(C)(CO)CO)[C@H](OC)C2)CC(=O)[C@H](C)/C=C(\C)[C@@H](O)[C@@H](OC)C(=O)[C@H](C)C[C@H](C)/C=C/C=C/C=C/1C [CCI-779, reference compound]	> 1
< 1	< 1	–	CO[C@H]1C[C@@H]2CC[C@@H](C)[C@@](O)(O2)C(=O)C(=O)N2CCCC[C@H]2C(=O)O[C@H]([C@H](C)C[C@@H]2CC[C@@H](OC(=O)C(C)(C)Cc3ccccn3)[C@H](OC)C2)CC(=O)[C@H](C)/C=C(\C)[C@@H](O)[C@@H](OC)C(=O)[C@H](C)C[C@H](C)C2C=CC(/C=C/1C)ON2c1ccccc1 [Example 6, 9,27-dihydroxy-3-{-2-[4-hydroxy-3-methoxycyclohexyl]-1-methylethyl}-10,21-dimethoxy-6,8,12,14,20,26-hexamethyl-37-phenyl-4,9,10,12,13,14,15,18,21,22,23,24,25,26,27,32,33,34,34a-nonadecahydro-3H-23,27-epoxy-18,15-(epoxyimino) pyrido[2,1-c][1,4]oxazacyclohentriacontine-1,5,11,28,29(6H,31H)-pentone ester with-2,2-dimethyl-3′-(pyridin-2-yl)-propionic acid]	–
< 1	< 1	–	CO[C@H]1C[C@@H]2CC[C@@H](C)[C@@](O)(O2)C(=O)C(=O)N2CCCC[C@H]2C(=O)O[C@H]([C@H](C)C[C@@H]2CC[C@@H](O)[C@H](OC)C2)CC(=O)[C@H](C)/C=C(\C)[C@@H](O)[C@@H](OC)C(=O)[C@H](C)C[C@H](C)[C@@H]2C=C[C@H](/C=C/1C)ON2c1ccccc1 [Example 1, 9,27-dihydroxy-3-{2-[4-hydroxy-3-methoxycyclohexyl]-1-methylethyl}-10,21-dimethoxy-6,8,12,14,20,26-hexamethyl-37-phenyl-4,9,10,12,13,14,15,18,21,22,23,24,25,26,27,32,33,34,34a-nonadecahydro-3H-23,27-epoxy-18,15-(epoxyimino)pyrido[2,1-c][1,4]oxazacyclohentriacontine-1,5,11,28,29(6H,31H)-pentone]	< 1
